Values joined by “and” are separate entries in the source; they are usually repeats but may differ in a detail not shown here. Equal entries are not always repeated.
Tested on: Female Balb/c mice
Test: Adjuvanticity of lipids: serum anti-KLH IgA, IgG, IgM ELISA (Example 7)
Assay type: in vivo
Settings: for Day 7 Results IgA, score as multiples of the control response / Day 7 Results IgG, score as multiples of the control response / Day 7 Results IgM, score as multiples of the control response: serum day 7 after booster; for Day 7 Results IgA, score as multiples of the control response: 5 μl lipid + 45 μl saline + 50 μl KLH (2 mg/ml), week 0 and week 2; for Day 7 Results IgA, score as multiples of the control response / Day 7 Results IgG, score as multiples of the control response / Day 7 Results IgM, score as multiples of the control response / Day 21 Results IgA, score as multiples of the control response / Day 21 Results IgG, score as multiples of the control response / Day 21 Results IgM, score as multiples of the control response: control KLH + Saline = 1; for Day 21 Results IgA, score as multiples of the control response / Day 21 Results IgG, score as multiples of the control response / Day 21 Results IgM, score as multiples of the control response: serum day 21 after booster; for Ranking Total: sum of the six IgA, IgG, IgM scores of day 7 and day 21, control KLH + Saline = 6
Protocol: The objective of this study was to investigate the adjuvanticity of 19 different lipids.
Female Balb/c mice, 6-8 weeks and weighing about 20-22 gms were used and maintained on a normal mouse diet throughout the study.
There were 22 groups of mice marked alphabetically from A-V. Group A (8 mice) was the negative control (KLH+Saline), Group B (8 mice) was the positive control (KLH+IFA). Groups C-V were the experimental groups containing 6 mice each. 100 μl of antigen preparation comprising of 5 μl lipid+45 μl saline+50 μl (2 mg/ml KLH) was administered to 20 groups of 6 mice each, on week 0 followed by a boost on week 2.
On day 7 and day 21 after the booster dose, the mice were tail bled, the serum separated, aliquoted and stored at 4° C.
The specific anti-KLH IgG and IgM antibody content of each individual serum sample was determined in an established ELISA assay and standardised against a positive control antiserum obtained by hyperimmunisation of mice with KLH (100 μg) in Freund's incomplete adjuvant. Plates were coated with KLH at 2 μg/ml and incubated with four twofold dilutions of samples (100 μl) at 37° C. for 2 hours. The initial dilution of serum samples was 1:50 for IgA assay and 1:100 for IgG and IgM assays. […] IgA and IgM were used at 1:1000 and IgG at 1:2000 for 2 hours at 37° C. The results were expressed as antibody units calculated from the standard curve obtained from pooled immune mouse serum given an arbitrary antibody value of 100,000 IgA units/ml and 1×10^6 IgG and IgM units/ml. The standard curve was diluted from 1:100 to 1:3200 for IgA, 1:4000 to 1:256,000 for IgG and 1:1000 to 1:32000 for IgM samples. The value for each sample dilution falling on standard curve was calculated and the mean taken as the value for the sample.
Results are given in the form of histograms (FIGS. 9 to 14), plotting the Ig response (units/ml) against the trial grouping. […] The number signifies multiples of the control response.

## CCCCCCCCCCCCCCCC(=O)OCC(COC(=O)CCCCCCCCCCCCC)OC(=O)CCCCCCCCCCCCCCC (racemic) [DPM, 1,2 Diplamitoyl-3-myristoyl-rac-glycerol]
  Day 7 Results IgA, score as multiples of the control response: 16
  Day 7 Results IgG, score as multiples of the control response: 3
  Day 7 Results IgM, score as multiples of the control response: 1
  Day 21 Results IgA, score as multiples of the control response: 2
  Day 21 Results IgG, score as multiples of the control response: 7
  Day 21 Results IgM, score as multiples of the control response: 2
  Ranking Total: 31

## CCCCCCCCCCCCCCCCCC(=O)OCC(COC(=O)CCCCCCCCCCCCC)OC(=O)CCCCCCCCCCCCCCCCC (racemic) [DSM, 1,2 Distearloyl-3-myristoyl-rac-glycerol]
  Day 7 Results IgA, score as multiples of the control response: 26
  Day 7 Results IgG, score as multiples of the control response: 4
  Day 7 Results IgM, score as multiples of the control response: 4
  Day 21 Results IgA, score as multiples of the control response: 3
  Day 21 Results IgG, score as multiples of the control response: 5
  Day 21 Results IgM, score as multiples of the control response: 3
  Ranking Total: 45

## CCCCCCCCCCCCCCCCCC(=O)OCC(COC(=O)CCCCCCCCCCCCCCC)OC(=O)CCCCCCCCCCCCCCCCC (racemic) [DSP, 1,2 Distearoyl-3-palmitoyl-rac-glycerol]
  Day 7 Results IgA, score as multiples of the control response: 15
  Day 7 Results IgG, score as multiples of the control response: 7
  Day 7 Results IgM, score as multiples of the control response: 5
  Day 21 Results IgA, score as multiples of the control response: 3
  Day 21 Results IgG, score as multiples of the control response: 8
  Day 21 Results IgM, score as multiples of the control response: 2
  Ranking Total: 39 and 40

## CCCCCCCCCCCCCC(=O)OCC(COP(=O)([O-])OCC[N+](C)(C)C)OC(=O)CCCCCCCCCCCCC (racemic) [PCM, DL-α-Phosphatidylcholine, dimyristoyl]
  Day 7 Results IgA, score as multiples of the control response: 4
  Day 7 Results IgG, score as multiples of the control response: 2
  Day 7 Results IgM, score as multiples of the control response: 1
  Day 21 Results IgA, score as multiples of the control response: 1
  Day 21 Results IgG, score as multiples of the control response: 3
  Day 21 Results IgM, score as multiples of the control response: 1
  Ranking Total: 12

## CCCCCCCCCCCCCCCCCC(=O)OCC(COP(=O)([O-])OCC[N+](C)(C)C)OC(=O)CCCCCCCCCCCCCCCCC (racemic) [PCS, DL-α-Phosphatidylcholine, distearoyl]
  Day 7 Results IgA, score as multiples of the control response: 22
  Day 7 Results IgG, score as multiples of the control response: 8
  Day 7 Results IgM, score as multiples of the control response: 2
  Day 21 Results IgA, score as multiples of the control response: 2
  Day 21 Results IgG, score as multiples of the control response: 13
  Day 21 Results IgM, score as multiples of the control response: 2
  Ranking Total: 49

## CCCCCCCCCCCCCCCC(=O)OCC(COP(=O)(O)OCCN)OC(=O)CCCCCCCCCCCCCCC (racemic) [PEP, DL-α-Phosphatidylethanolamine, dipalmitoyl]
  Day 7 Results IgA, score as multiples of the control response: 9
  Day 7 Results IgG, score as multiples of the control response: 8
  Day 7 Results IgM, score as multiples of the control response: 2
  Day 21 Results IgA, score as multiples of the control response: 2
  Day 21 Results IgG, score as multiples of the control response: 17
  Day 21 Results IgM, score as multiples of the control response: 1
  Ranking Total: 40 and 39

## CCCCCCCCCCCCCCCC(=O)OCC(COP(=O)(O)OC[C@H](N)C(=O)O)OC(=O)CCCCCCCCCCCCCCC (mixture of isomers) [PSP, DL-α-Phosphatidyl-L-serine, dipalmitoyl]
  Day 7 Results IgA, score as multiples of the control response: 47
  Day 7 Results IgG, score as multiples of the control response: 2
  Day 7 Results IgM, score as multiples of the control response: 2
  Day 21 Results IgA, score as multiples of the control response: 3
  Day 21 Results IgG, score as multiples of the control response: 14
  Day 21 Results IgM, score as multiples of the control response: 2
  Ranking Total: 70

## CCCCCCCCCCCCCCCCC(=O)OC[C@H](COP(=O)(O)O)OC(=O)CCCCCCCCCCCCCCCC [PAH, L-α-Phosphatidicacid, diheptadecanoyl]
  Day 7 Results IgA, score as multiples of the control response: 5
  Day 7 Results IgG, score as multiples of the control response: 4
  Day 7 Results IgM, score as multiples of the control response: 2
  Day 21 Results IgA, score as multiples of the control response: 2
  Day 21 Results IgG, score as multiples of the control response: 6
  Day 21 Results IgM, score as multiples of the control response: 2
  Ranking Total: 21

## CCCCCCCCCCCCCC(=O)OC[C@H](COP(=O)(O)O)OC(=O)CCCCCCCCCCCCC [PAM, L-α-Phosphatidicacid, dimyristoyl]
  Day 7 Results IgA, score as multiples of the control response: 4
  Day 7 Results IgG, score as multiples of the control response: 5
  Day 7 Results IgM, score as multiples of the control response: 1
  Day 21 Results IgA, score as multiples of the control response: 1
  Day 21 Results IgG, score as multiples of the control response: 6
  Day 21 Results IgM, score as multiples of the control response: 1
  Ranking Total: 18

## CCCCCCCCCCCCCCCC(=O)N[C@@H](CO[C@@H]1O[C@H](CO)[C@@H](O)[C@H](O)[C@H]1O)[C@H](O)CCCCCCCCCCCCCCC [PC, N-Palmitoyl dihydroglucocerebroside]
  Day 7 Results IgA, score as multiples of the control response: 33
  Day 7 Results IgG, score as multiples of the control response: 2
  Day 7 Results IgM, score as multiples of the control response: 3
  Day 21 Results IgA, score as multiples of the control response: 3
  Day 21 Results IgG, score as multiples of the control response: 12
  Day 21 Results IgM, score as multiples of the control response: 3
  Ranking Total: 56

## CCCCCCCCCCCCCCCCC(=O)OC[C@H](COP(=O)([O-])OCC[N+](C)(C)C)OC(=O)CCCCCCCCCCCCCCCC [PCH, L-α-Phosphatidylcholine, diheptadecanoyl]
  Day 7 Results IgA, score as multiples of the control response: 18
  Day 7 Results IgG, score as multiples of the control response: 10
  Day 7 Results IgM, score as multiples of the control response: 1
  Day 21 Results IgA, score as multiples of the control response: 2
  Day 21 Results IgG, score as multiples of the control response: 10
  Day 21 Results IgM, score as multiples of the control response: 2
  Ranking Total: 43

## CCCCCCCCCCCCCCC(=O)OC[C@H](COP(=O)([O-])OCC[N+](C)(C)C)OC(=O)CCCCCCCCCCCCCC [PCP, L-α-Phosphatidylcholine, dipentadecanoyl]
  Day 7 Results IgA, score as multiples of the control response: 9
  Day 7 Results IgG, score as multiples of the control response: 5
  Day 7 Results IgM, score as multiples of the control response: 2
  Day 21 Results IgA, score as multiples of the control response: 2
  Day 21 Results IgG, score as multiples of the control response: 3
  Day 21 Results IgM, score as multiples of the control response: 1
  Ranking Total: 22
